# Source: patent US9321776B2, “Isochromene derivatives as phoshoinositide 3-kinases inhibitors” (CHIESI FARMACEUTICI S.p.A., priority 2013, dated 2016)
# Where a name gives a salt, the structure may show the parent alone.
# What was measured:
# Test in all cases: PI3K enzyme inhibitory activity in the cell free assay (ADP-Glo Kinase Assay)
# Format in all cases: biochemical
# [1] = biological target: T1, PI3Kα (Homo sapiens, UniProt P42336); conditions: human recombinant PI3Kα, ATP 50 μM; read-out: PI3K alpha inhibition
# T1 construct: purchased Millipore Ltd (Billerica, Mass.)
# [2] = biological target: T2, PI3Kβ (Homo sapiens, UniProt P42338); conditions: human recombinant PI3Kβ, ATP 100 μM; read-out: PI3K beta inhibition
# T2 construct: purchased Millipore Ltd (Billerica, Mass.)
# [3] = biological target: T3, PI3Kδ (Homo sapiens, UniProt O00329); conditions: human recombinant PI3Kδ, ATP 80 μM; read-out: PI3K delta inhibition
# T3 construct: purchased Millipore Ltd (Billerica, Mass.)
# T3 sequence (O00329 1-1044): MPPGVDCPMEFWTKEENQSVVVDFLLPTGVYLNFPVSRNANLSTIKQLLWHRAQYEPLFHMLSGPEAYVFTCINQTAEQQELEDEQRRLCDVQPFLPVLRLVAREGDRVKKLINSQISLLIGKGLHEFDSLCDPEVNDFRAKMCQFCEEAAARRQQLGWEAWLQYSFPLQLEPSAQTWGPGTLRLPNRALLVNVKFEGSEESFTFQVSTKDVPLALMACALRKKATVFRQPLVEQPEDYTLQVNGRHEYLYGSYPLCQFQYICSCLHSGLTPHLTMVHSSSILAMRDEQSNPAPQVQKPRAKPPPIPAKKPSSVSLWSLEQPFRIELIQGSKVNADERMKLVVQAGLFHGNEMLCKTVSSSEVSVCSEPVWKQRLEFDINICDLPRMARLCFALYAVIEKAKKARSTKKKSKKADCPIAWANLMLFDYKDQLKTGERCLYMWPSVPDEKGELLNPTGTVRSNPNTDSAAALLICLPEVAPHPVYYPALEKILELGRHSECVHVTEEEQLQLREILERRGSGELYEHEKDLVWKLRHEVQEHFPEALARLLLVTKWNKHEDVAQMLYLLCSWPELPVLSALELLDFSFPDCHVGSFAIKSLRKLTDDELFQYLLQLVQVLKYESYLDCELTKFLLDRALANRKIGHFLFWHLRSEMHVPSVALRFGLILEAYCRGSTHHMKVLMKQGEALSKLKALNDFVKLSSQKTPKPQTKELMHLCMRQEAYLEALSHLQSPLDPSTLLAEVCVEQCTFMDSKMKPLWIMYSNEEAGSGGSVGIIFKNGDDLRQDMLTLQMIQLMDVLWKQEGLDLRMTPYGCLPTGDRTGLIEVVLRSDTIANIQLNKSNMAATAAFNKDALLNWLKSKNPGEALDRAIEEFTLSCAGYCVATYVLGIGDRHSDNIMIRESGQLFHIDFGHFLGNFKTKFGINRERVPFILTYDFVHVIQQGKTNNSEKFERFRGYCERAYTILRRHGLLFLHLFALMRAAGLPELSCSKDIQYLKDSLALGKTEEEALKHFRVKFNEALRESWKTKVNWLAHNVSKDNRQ
# [4] = biological target: T4, PI3Kγ (Homo sapiens, UniProt P48736); conditions: human recombinant PI3Kγ, ATP 30 μM; read-out: PI3K gamma inhibition
# T4 construct: purchased Millipore Ltd (Billerica, Mass.)
# T4 sequence (P48736 whole entry): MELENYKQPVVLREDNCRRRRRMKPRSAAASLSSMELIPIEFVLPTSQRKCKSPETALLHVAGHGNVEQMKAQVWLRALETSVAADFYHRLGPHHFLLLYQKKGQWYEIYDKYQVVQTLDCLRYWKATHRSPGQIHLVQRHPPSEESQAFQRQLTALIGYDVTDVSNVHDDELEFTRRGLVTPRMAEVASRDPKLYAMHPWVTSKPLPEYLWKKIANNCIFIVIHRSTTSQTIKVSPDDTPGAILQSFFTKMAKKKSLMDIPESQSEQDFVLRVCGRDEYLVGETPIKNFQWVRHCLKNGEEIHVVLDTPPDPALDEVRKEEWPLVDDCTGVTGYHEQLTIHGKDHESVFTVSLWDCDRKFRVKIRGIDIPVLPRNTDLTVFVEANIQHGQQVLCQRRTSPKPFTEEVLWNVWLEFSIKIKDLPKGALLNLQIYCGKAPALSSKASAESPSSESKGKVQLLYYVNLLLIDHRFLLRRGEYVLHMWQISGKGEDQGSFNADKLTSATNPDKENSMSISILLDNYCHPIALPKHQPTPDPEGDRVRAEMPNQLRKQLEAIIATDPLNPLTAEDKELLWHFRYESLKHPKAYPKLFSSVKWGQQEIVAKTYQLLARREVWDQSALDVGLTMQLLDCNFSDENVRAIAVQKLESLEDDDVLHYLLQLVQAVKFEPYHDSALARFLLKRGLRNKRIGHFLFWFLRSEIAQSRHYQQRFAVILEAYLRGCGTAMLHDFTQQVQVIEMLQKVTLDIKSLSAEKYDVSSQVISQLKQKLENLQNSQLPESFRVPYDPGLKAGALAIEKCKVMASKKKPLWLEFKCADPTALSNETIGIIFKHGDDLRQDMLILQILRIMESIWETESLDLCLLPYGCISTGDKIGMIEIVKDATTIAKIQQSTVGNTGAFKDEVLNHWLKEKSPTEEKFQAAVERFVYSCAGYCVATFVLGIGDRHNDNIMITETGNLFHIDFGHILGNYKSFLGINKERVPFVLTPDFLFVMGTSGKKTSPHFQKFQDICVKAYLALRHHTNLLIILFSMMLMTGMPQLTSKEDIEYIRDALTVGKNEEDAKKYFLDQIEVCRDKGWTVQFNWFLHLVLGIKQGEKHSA
# T2 sequence (P42338 whole entry): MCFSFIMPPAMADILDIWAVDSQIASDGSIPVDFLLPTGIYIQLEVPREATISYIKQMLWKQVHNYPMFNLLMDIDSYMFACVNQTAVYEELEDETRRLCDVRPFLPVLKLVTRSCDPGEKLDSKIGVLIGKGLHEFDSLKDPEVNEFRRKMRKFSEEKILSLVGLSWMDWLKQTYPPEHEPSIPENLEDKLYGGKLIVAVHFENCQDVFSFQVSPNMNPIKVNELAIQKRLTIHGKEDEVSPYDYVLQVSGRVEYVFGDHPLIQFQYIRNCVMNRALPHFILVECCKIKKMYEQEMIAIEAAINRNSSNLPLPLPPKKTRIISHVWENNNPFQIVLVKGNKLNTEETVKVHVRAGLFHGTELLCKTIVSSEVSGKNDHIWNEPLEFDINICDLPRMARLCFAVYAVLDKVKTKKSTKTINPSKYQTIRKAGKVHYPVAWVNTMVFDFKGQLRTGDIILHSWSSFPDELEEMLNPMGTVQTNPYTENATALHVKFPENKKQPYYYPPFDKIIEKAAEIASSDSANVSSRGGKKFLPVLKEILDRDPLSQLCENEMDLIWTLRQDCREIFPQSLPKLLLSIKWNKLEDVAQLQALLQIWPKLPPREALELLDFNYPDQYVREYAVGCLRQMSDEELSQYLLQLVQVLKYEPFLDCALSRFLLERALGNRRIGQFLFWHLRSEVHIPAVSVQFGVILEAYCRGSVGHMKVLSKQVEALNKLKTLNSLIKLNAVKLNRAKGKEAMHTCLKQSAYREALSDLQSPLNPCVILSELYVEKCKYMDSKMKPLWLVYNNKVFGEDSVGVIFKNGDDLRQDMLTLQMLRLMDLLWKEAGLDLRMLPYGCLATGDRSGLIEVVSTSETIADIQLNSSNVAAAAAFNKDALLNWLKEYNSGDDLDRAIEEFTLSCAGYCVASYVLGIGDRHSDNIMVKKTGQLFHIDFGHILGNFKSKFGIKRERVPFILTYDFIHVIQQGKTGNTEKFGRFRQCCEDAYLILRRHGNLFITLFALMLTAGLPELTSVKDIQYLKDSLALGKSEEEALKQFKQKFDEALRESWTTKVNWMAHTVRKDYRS
# T1 sequence (P42336 whole entry): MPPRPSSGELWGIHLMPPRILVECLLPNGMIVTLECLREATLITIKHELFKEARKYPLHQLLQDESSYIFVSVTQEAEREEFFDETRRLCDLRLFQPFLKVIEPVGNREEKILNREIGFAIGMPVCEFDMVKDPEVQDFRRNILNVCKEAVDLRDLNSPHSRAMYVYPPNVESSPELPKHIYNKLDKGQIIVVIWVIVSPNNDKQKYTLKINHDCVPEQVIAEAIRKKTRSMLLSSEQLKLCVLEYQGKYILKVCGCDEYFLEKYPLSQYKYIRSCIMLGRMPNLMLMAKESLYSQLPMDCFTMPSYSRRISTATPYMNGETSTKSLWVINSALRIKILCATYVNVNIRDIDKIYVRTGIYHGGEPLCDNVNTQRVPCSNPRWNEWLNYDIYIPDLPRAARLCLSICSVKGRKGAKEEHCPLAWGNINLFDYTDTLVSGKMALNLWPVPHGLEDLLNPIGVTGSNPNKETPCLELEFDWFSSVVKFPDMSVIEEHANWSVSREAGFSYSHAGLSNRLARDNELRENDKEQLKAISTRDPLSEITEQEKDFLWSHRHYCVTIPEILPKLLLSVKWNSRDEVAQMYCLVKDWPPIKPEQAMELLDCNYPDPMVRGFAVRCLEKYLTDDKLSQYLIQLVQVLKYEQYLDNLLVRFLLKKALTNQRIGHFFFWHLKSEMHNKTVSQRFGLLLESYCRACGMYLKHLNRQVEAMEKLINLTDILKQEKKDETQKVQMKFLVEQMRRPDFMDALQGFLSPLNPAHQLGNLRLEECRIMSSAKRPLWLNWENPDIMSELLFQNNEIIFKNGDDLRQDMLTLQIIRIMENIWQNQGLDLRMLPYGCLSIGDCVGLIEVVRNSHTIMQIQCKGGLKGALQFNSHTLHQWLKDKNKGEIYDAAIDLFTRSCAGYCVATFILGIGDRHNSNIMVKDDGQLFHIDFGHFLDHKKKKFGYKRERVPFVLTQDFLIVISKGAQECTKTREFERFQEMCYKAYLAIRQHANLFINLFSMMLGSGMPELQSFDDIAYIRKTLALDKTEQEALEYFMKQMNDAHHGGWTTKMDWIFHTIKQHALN
SMILES,IC50 [1] [nM],IC50 [2] [nM],IC50 [3] [nM],IC50 [4] [nM]
"CC(c1oc(=O)c2ccccc2c1-c1cccc(CCCN(C)C)c1)n1nc(-c2cc(O)cc(F)c2)c2c(N)ncnc21 (single isomer, unassigned) [Example 137b, 3-(1-(4-amino-3-(3-fluoro-5-hydroxyphenyl)-1H-pyrazolo[3,4-d]pyrimidin-1-yl)ethyl)-4-(3-(3-(dimethylamino)propyl)phenyl)-1H-isochromen-1-one single enantiomers]",> 1000,10 to 1000,< 10,10 to 1000
"CC(c1oc(=O)c2ccccc2c1-c1cccc(CCCN(C)C)c1)n1nc(-c2cc(O)cc(F)c2)c2c(N)ncnc21 (stereo not drawn) [Example 137, 3-(1-(4-amino-3-(3-fluoro-5-hydroxyphenyl)-1H-pyrazolo[3,4-d]pyrimidin-1-yl)ethyl)-4-(3-(3-(dimethylamino)propyl)phenyl)-1H-isochromen-1-one, Formic Acid]",> 1000,10 to 1000,< 10,10 to 1000
"Cc1ncc(-c2nn(C(C)c3oc(=O)c4ccccc4c3-c3ccccc3)c3ncnc(N)c23)cc1O (stereo not drawn) [Example 99, 3-(1-(4-amino-3-(5-hydroxy-6-methylpyridin-3-yl)-1H-pyrazolo[3,4-d]pyrimidin-1-yl)ethyl)-4-phenyl-1H-isochromen-1-one]",10 to 1000,10 to 1000,< 10,10 to 1000
"CC(c1oc(=O)c2ccccc2c1-c1cccc(C(=O)NCCN(C)C)c1)n1nc(-c2cc(O)cc(F)c2)c2c(N)ncnc21 (stereo not drawn) [Example 70, 3-(3-(1-(4-amino-3-(3-fluoro-5-hydroxyphenyl)-1H-pyrazolo[3,4-d]pyrimidin-1-yl)ethyl)-1-oxo-1H-isochromen-4-yl)-N-(2-(dimethylamino)ethyl)benzamide hydrochloride]",> 1000,10 to 1000,< 10,10 to 1000
"CC(c1oc(=O)c2ccccc2c1-c1ccc(CN2CCCCC2)cc1)n1nc(-c2cc(O)cc(F)c2)c2c(N)ncnc21 (stereo not drawn) [Example 141, 3-(1-(4-amino-3-(3-fluoro-5-hydroxyphenyl)-1H-pyrazolo[3,4-d]pyrimidin-1-yl)ethyl)-4-(4-(piperidin-1-ylmethyl)phenyl)-1H-isochromen-1-one, hydrochloride]",> 1000,10 to 1000,< 10,> 1000
"CC(Nc1ncnc(N)c1C#N)c1oc(=O)c2ccccc2c1-c1cn[nH]c1 (stereo not drawn) [Example 123, 4-amino-6-((1-(1-oxo-4-(1H-pyrazol-4-yl)-1H-isochromen-3-yl)ethyl)amino)pyrimidine-5-carbonitrile hydrochloride]",10 to 1000,10 to 1000,10 to 1000,10 to 1000
"Cc1cccc(-c2c(C(C)n3nc(I)c4c(N)ncnc43)oc(=O)c3ccccc23)c1 (stereo not drawn) [Int D3, 3-(1-(4-Amino-3-iodo-1H-pyrazolo[3,4-d]pyrimidin-1-yl)ethyl)-4-m-tolyl-1H-isochromen-1-one]",> 1000,> 1000,< 10,10 to 1000
"CC(Nc1ncnc2[nH]cnc12)c1oc(=O)c2ccccc2c1C1=CCNCC1 (stereo not drawn) [Example 23, 3-(1-(9H-Purin-6-ylamino)ethyl)-4-(1,2,3,6-tetrahydropyridin-4-yl)-1H-isochromen-1-one hydrochloride]",> 1000,10 to 1000,< 10,> 1000
"CC(c1oc(=O)c2ccccc2c1C1=CCCN(Cc2ccccc2)C1)n1nc(-c2cc(O)cc(F)c2)c2c(N)ncnc21 (single isomer, unassigned) [Example 169b, 3-(1-(4-amino-3-(3-fluoro-5-hydroxyphenyl)-1H-pyrazolo[3,4-d]pyrimidin-1-yl)ethyl)-4-(1-benzyl-1,2,5,6-tetrahydropyridin-3-yl)-1H-isochromen-1-one hydrochloride single enantiomers]",> 1000,10 to 1000,,
"CC(c1oc(=O)c2ccccc2c1C#CCN(C)C)n1nc(-c2cc(O)cc(F)c2)c2c(N)ncnc21 (stereo not drawn) [Example 158, 3-(1-(4-amino-3-(3-fluoro-5-hydroxyphenyl)-1H-pyrazolo[3,4-d]pyrimidin-1-yl)ethyl)-4-(3-(dimethylamino)prop-1-yn-1-yl)-1H-isochromen-1-one hydrochloride]",10 to 1000,10 to 1000,10 to 1000,

# Continued, values first:
IC50 [1] [nM],IC50 [2] [nM],IC50 [3] [nM],IC50 [4] [nM],SMILES
> 1000,10 to 1000,10 to 1000,10 to 1000,"CC(c1oc(=O)c2ccccc2c1C1=CCN(C(=O)C2CN(C)C2)CC1)n1nc(-c2cc(O)cc(F)c2)c2c(N)ncnc21 (stereo not drawn) [Example 151, 3-(1-(4-amino-3-(3-fluoro-5-hydroxyphenyl)-1H-pyrazolo[3,4-d]pyrimidin-1-yl)ethyl)-4-(1-(1-methylazetidine-3-carbonyl)-1,2,3,6-tetrahydropyridin-4-yl)-1H-isochromen-1-one formate]"
> 1000,10 to 1000,< 10,> 1000,"CC(c1oc(=O)c2ccccc2c1C1=CCNCC1)n1nc(-c2cc(O)cc(C(F)(F)F)c2)c2c(N)ncnc21 (stereo not drawn) [Example 153, 3-(1-(4-amino-3-(3-hydroxy-5-(trifluoromethyl)phenyl)-1H-pyrazolo[3,4-d]pyrimidin-1-yl)ethyl)-4-(1,2,3,6-tetrahydropyridin-4-yl)-1H-isochromen-1-one formate]"
> 1000,10 to 1000,10 to 1000,> 1000,"CC(c1oc(=O)c2ccccc2c1C1=CCN(C)CC1)n1nc(-c2cc(O)cc(C(F)(F)F)c2)c2c(N)ncnc21 (stereo not drawn) [Example 155, 3-(1-(4-amino-3-(3-hydroxy-5-(trifluoromethyl)phenyl)-1H-pyrazolo[3,4-d]pyrimidin-1-yl)ethyl)-4-(1-methyl-1,2,3,6-tetrahydropyridin-4-yl)-1H-isochromen-1-one formate]"
10 to 1000,10 to 1000,< 10,> 1000,"CC(c1oc(=O)c2ccccc2c1C1=CCC(N)CC1)n1nc(-c2cc(O)cc(F)c2)c2c(N)ncnc21 (stereo not drawn) [Example 103, 3-(1-(4-amino-3-(3-fluoro-5-hydroxyphenyl)-1H-pyrazolo[3,4-d]pyrimidin-1-yl)ethyl)-4-(4-aminocyclohex-1-en-1-yl)-1H-isochromen-1-one hydrochloride]"
> 1000,10 to 1000,< 10,10 to 1000,"CC(c1oc(=O)c2ccccc2c1C1=CC(C)(C)NC(C)(C)C1)n1nc(-c2cc(O)cc(F)c2)c2c(N)ncnc21 (stereo not drawn) [Example 144, 3-(1-(4-amino-3-(3-fluoro-5-hydroxyphenyl)-1H-pyrazolo[3,4-d]pyrimidin-1-yl)ethyl)-4-(2,2,6,6-tetramethyl-1,2,3,6-tetrahydropyridin-4-yl)-1H-isochromen-1-one hydrochloride]"
10 to 1000,10 to 1000,< 10,10 to 1000,"CC(c1oc(=O)c2ccccc2c1-c1ccc(CN2CCN(C)CC2)s1)n1nc(-c2cc(O)cc(F)c2)c2c(N)ncnc21 (stereo not drawn) [Example 135, 3-(1-(4-amino-3-(3-fluoro-5-hydroxyphenyl)-1H-pyrazolo[3,4-d]pyrimidin-1-yl)ethyl)-4-(5-((4-methyl)piperazin-1-yl)methyl)thiophen-2-yl)-1H-isochromen-1-one, dihydrochloride]"
10 to 1000,10 to 1000,< 10,10 to 1000,"CC(c1oc(=O)c2ccccc2c1-c1cncs1)n1nc(-c2cc(O)cc(F)c2)c2c(N)ncnc21 (stereo not drawn) [Example 120, 3-(1-(4-amino-3-(3-fluoro-5-hydroxyphenyl)-1H-pyrazolo[3,4-d]pyrimidin-1-yl)ethyl)-4-(thiazol-5-yl)-1H-isochromen-1-one]"
> 1000,10 to 1000,10 to 1000,10 to 1000,"CC(c1oc(=O)c2ccccc2c1-c1cnc(N)s1)n1nc(-c2cc(O)cc(F)c2)c2c(N)ncnc21 (stereo not drawn) [Example 121, 3-(1-(4-amino-3-(3-fluoro-5-hydroxyphenyl)-1H-pyrazolo[3,4-d]pyrimidin-1-yl)ethyl)-4-(2-aminothiazol-5-yl)-1H-isochromen-1-one hydrochloride]"
